Assays:
[1] = tested on: rat primary hippocampal neurons injured with Aβ 1-42; experiment: Number of synapses (PSD95/SYN overlap) in primary culture of hippocampal neurons injured with Aβ 1-42; type: cell-based; conditions: from 5 nM to 1 μM; Aβ 1-42 injured hippocampal neurons; Example 1
Experimental: Rat hippocampal neurons were cultured as described by Callizot et al. (2013) J. Neurosci. Res. 91706-716. Pregnant female rats of 17 days gestation (Rats Wistar; Janvier Labs France) were killed using a deep anesthesia with CO2 chamber followed by a cervical dislocation. Then, fetuses were removed from the uterus and immediately placed in ice-cold L15 Leibovitz medium with a 2% penicillin (10,000 U/ml) and streptomycin (10 mg/ml) solution (PS) and 1% bovine serum albumin (BSA). Hippocampal neurons were treated for 20 min at 37° C. with a trypsin-EDTA solution at a final concentration of 0.05% trypsin and 0.02% EDTA. The dissociation was stopped by adding Dulbecco's modified Eagle's medium (DMEM) with 4.5 g/l of glucose, containing DNAse I grade 11 (final concentration 0.5 mg/ml) and 10% fetal calf serum (FCS). Cells were mechanically dissociated by three forced passages through the tip of a 10-ml pipette and then centrifuged at 515×g for 10 min at 4° C. The supernatant was discarded, and the pellet was resuspended in a defined culture medium consisting of Neurobasal medium with a 2% solution of B27 supplement, 2 mmol/l of L-glutamine, 2% of PS solution, and 10 ng/ml of brain-derived neurotrophic factor (BDNF). Viable cells were counted in a Neubauer cytometer, using the trypan blue exclusion test. […] The medium was changed every 2 days.
The hippocampal neurons were exposed with Aβ solutions (see below) after 17 days of culture. The Aβ1-42 preparation was done following the procedure described by Callizot et al. (2013) J. Neurosci. Res. 91706-716. Briefly, Aβ1-42 peptide was dissolved in the defined culture medium mentioned above, at an initial concentration of 40 μM. This solution was gently agitated for 3 days at 37° C. in the dark and immediately used after being properly diluted in culture medium to the concentrations used (20 μM (plate 1) or 2.5 μM (plate 2) corresponding to 2 μM or 0.25 μM of oligomers (AβO) respectively).
Donecopride fumarate was solved in culture medium and preincubated 1 h before Aβ application. Aβ1-42 preparation was added to a final concentration of 20 or 2.5 μM (=2 μM or 0.25 μM of AβO, evaluated by automatic Western Blot) diluted in control medium in presence of Donecopride.
Donecopride fumarate (Donecopride) was tested on one culture in a 96 well plate (6 wells per conditions). The compound was preincubated one hour before […] application. The following conditions were assessed:
After permeabilization with 0.1% of saponin, cells were incubated for 2 h with:
a) mouse monoclonal antibody anti post synaptic density 95 kDa (PSD95) at a dilution of 1/100 in PBS containing 1% fetal calf serum and 0.1% of saponin.
b) Rabbit polyclonal antibody anti-synaptophysin (SYN) at the dilution of 1/100 in PBS containing 1% fetal calf serum and 0.1% of saponin.
For each condition, 40 pictures per well were taken using ImageXpress (Molecular Devices) with 40× magnification. All images were taken with the same acquisition parameters.
Synapses evaluation was performed automatically by using Custom module editor (Molecular Devices).
Total number of synapses (overlapping between PSD95/SYN).
To assess the formation of synapses, the distribution of PSD-95, a post-synaptic marker, and synaptophysin, a pre-synaptic marker, was studied. A structure positive for both PSD-95 and synaptophysin staining was considered as a synapse.
Rat hippocampal neurons were cultured as described by Callizot et al. (2013) J. Neurosci. Res. 91:706-716.

[2] = tested on: 5XFAD mice; experiment: Novel object recognition test in chronically treated 5XFAD mice; type: in vivo, mouse; conditions: 5XFAD females, 1 mg/kg twice a week for 3 months
Experimental: (§1) 5XFAD mice received chronic treatments with drugs or vehicle according to 2 different protocols. In each experiment, drugs or vehicle solution were administered i.p. twice a week (1 mg/kg). In “Protocol 1”, mice (n=6-7 mice per group) were treated with compounds for two months, from 2 to 4 months of age. In “Protocol 2”, mice (n=7) were treated with compounds for three months, from 1 month to 4 months of age. At the end of each protocol, mice were anesthetized with a mixture of 100 mg/kg ketamine and 10 mg/kg xylazine in saline solution and perfused transcardially with PBS. Brains were quickly isolated on ice, the olfactory bulbs and cerebellum removed and the two hemispheres divided. One hemisphere was frozen on dry ice and stored at −80° C. for biochemical analysis, while the other was post-fixed in 4% PFA for immunohistochemistry (IHC).
(§2) 28 female 5XFAD mice (C57BL/6J genetic background) were used in this study. Mice received vehicle or compounds (1 mg/kg) i.p., twice a week for three months, from 1 to 4 months of age.

[3] = tested on: 5XFAD mice; experiment: Aβ42 concentration in cerebrospinal fluid of chronically treated 5XFAD mice; type: in vivo, mouse; conditions: 1 mg/kg twice a week for 3 months, versus controls
Experimental: as §1, §2

[4] = tested on: 5XFAD mice; experiment: Amyloid plaque number (thioflavin T staining) in brain sections of 5XFAD mice; type: in vivo, mouse; conditions: 1 mg/kg twice a week for 3 months, versus controls
Experimental: as §1
Thirty-micrometer-thick sections were cut using a vibratome (Microm HM 650V, Thermo Scientific, Saint Herblain, France) and stored in cryoprotectant medium at −20° C. […]
Images were acquired with an Axiolmager Z1 microscope (Carl Zeiss S.A.S., Marly le Roi, France). […] GFAP expression was quantified using Image J software and results are expressed as area fractions. […]

[5] = tested on: 5XFAD mice; experiment: Astrogliosis (GFAP staining) in brain sections of 5XFAD mice; type: in vivo, mouse; conditions: 1 mg/kg twice a week for 3 months, versus controls
Experimental: as §1
Thirty-micrometer-thick sections were cut using a vibratome (Microm HM 650V, Thermo Scientific, Saint Herblain, France) and stored in cryoprotectant medium at −20° C. For the labeling of amyloid plaques, free-floating tissue sections of frontal cortex, hippocampus and entorhinal cortex (coordinates from the bregma: frontal cortex=1.98 mm, hippocampus=−1.94 mm, entorhinal cortex=−3.08 mm) were extensively washed in PBS and then incubated in blocking solution (PBS; 3% BSA; 0.1% Triton X-100) for 1 h. Sections were stained with Hoechst dye (1:1000, Life Technologies, Saint Aubin, France) for 15 minutes to detect cell nuclei and then with freshly prepared thioflavin T solution (#T3516-5G, Sigma-Aldrich) (final concentration: 0.01 mg/ml in blocking buffer) for 15 minutes. After washing in 70% ethanol for 5 minutes, samples were mounted on poly-lysine slides with coverslips. For GFAP (glial fibrillary acidic protein) staining, free-floating brain sections were blocked as before and incubated with polyclonal rabbit anti-GFAP (1:1000, Z0334, Dako, Les Ullis, France) at 4° C. overnight. After thioflavin T staining and washing with 70% ethanol, the secondary Alexafluor 594 goat anti-rabbit antibody (1:1000, A11012, Life Technologies) was added for 2 h. PBS washes and mounting were performed as described before.
Images were acquired with an Axiolmager Z1 microscope (Carl Zeiss S.A.S., Marly le Roi, France). Analysis of thioflavin T staining was performed blindly and data are presented as the mean number of particles per mm^2 in two to three tissue sections from the same brain area/animal (Image J software). GFAP expression was quantified using Image J software and results are expressed as area fractions.
as §2

Compound: COc1cc(N)c(Cl)cc1C(=O)CCC1CCN(CC2CCCCC2)CC1 [Donecopride]
- Preservation of the number of synapses [1]: preserve the number of synapses, on a dose dependent manner
- Total exploration time during the training session (NOR test) [2]: did not differ significantly
- Recognition memory: time exploring novel versus familiar object (NOR test) ([2]; 24 h interval between training and test): able to prevent memory alteration
- Aβ42 concentration in cerebrospinal fluid (CSF) [3]: not significantly different compared to controls
- Amyloid plaque number in hippocampus [4]: not significantly different compared to controls
- GFAP staining in frontal cortex [5]: not significantly different compared to controls
- GFAP staining in hippocampus [5]: not significantly different compared to controls
